Source: patent US12275731B2, “Azaindole inhibitors of wild-type and mutant forms of LRRK2” (DANA-FARBER CANCER INSTITUTE, INC., priority 2018, dated 2025)

Columns and labels:
Test in all cases: KinomeScan profiling
Assay type in all cases: binding
PRKX = biological target: T1, PRKX (Homo sapiens, UniProt P51817); conditions: read-out: % control
T1 sequence (P51817 1-358): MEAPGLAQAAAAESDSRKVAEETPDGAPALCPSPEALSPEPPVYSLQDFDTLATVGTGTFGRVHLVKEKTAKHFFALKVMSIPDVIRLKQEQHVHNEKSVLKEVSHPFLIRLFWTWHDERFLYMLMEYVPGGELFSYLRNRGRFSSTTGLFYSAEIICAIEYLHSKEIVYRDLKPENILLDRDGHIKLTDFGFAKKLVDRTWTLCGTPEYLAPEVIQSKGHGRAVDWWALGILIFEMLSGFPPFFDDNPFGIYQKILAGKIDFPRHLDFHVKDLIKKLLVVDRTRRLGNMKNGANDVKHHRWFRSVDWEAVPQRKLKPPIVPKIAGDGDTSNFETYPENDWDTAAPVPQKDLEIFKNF
Outline: (§1)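 The panel spans 468 kinases, and each inventive compound was applied at 1 μM from DMSO. Lower % control means stronger binding; the activity cut-off is set at less than 35%.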

CDK8 = CDK8 (Homo sapiens, UniProt P49336); conditions: CDK8, 1 μM; read-out: % control
Sequence of CDK8 (P49336 whole entry): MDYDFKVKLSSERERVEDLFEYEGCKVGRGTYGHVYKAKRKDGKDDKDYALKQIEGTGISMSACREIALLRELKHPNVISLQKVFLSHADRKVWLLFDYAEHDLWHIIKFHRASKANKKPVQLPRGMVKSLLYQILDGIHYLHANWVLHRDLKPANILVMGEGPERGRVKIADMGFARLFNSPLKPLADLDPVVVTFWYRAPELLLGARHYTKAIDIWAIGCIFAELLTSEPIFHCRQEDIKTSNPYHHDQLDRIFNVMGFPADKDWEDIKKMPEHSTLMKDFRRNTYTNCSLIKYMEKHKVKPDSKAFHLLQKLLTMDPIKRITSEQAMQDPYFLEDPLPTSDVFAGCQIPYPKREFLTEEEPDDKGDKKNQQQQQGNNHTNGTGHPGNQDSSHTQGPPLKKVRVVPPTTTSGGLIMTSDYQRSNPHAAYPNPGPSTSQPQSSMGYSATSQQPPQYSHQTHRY
Outline: as §1

PAK6 = PAK6 (Homo sapiens, UniProt Q9NQU5); conditions: PAK6, 1 μM; read-out: % control
Sequence of PAK6 (Q9NQU5 whole entry): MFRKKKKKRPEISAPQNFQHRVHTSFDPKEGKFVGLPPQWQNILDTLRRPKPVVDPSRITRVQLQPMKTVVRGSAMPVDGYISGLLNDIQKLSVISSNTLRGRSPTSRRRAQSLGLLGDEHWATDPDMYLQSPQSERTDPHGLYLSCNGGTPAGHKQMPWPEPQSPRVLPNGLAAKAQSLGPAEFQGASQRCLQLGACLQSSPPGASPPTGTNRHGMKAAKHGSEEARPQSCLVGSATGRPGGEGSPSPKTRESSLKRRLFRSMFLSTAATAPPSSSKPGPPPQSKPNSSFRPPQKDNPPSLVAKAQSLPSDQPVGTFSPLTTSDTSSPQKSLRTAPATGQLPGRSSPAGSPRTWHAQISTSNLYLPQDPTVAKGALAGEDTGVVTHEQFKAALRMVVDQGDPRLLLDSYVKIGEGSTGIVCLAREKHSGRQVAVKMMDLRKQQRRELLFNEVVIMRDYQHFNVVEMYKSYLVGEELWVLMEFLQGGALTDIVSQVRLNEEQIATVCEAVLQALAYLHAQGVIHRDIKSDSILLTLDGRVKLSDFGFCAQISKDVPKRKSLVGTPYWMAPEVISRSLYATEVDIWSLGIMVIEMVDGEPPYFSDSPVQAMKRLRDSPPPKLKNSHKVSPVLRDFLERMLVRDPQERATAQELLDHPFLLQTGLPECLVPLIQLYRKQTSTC
Outline: as §1

CDKL5 = biological target: T2, CDKL5 (Homo sapiens, UniProt O76039); conditions: CDKL5, 1 μM; read-out: % control
T2 sequence (O76039 1-960): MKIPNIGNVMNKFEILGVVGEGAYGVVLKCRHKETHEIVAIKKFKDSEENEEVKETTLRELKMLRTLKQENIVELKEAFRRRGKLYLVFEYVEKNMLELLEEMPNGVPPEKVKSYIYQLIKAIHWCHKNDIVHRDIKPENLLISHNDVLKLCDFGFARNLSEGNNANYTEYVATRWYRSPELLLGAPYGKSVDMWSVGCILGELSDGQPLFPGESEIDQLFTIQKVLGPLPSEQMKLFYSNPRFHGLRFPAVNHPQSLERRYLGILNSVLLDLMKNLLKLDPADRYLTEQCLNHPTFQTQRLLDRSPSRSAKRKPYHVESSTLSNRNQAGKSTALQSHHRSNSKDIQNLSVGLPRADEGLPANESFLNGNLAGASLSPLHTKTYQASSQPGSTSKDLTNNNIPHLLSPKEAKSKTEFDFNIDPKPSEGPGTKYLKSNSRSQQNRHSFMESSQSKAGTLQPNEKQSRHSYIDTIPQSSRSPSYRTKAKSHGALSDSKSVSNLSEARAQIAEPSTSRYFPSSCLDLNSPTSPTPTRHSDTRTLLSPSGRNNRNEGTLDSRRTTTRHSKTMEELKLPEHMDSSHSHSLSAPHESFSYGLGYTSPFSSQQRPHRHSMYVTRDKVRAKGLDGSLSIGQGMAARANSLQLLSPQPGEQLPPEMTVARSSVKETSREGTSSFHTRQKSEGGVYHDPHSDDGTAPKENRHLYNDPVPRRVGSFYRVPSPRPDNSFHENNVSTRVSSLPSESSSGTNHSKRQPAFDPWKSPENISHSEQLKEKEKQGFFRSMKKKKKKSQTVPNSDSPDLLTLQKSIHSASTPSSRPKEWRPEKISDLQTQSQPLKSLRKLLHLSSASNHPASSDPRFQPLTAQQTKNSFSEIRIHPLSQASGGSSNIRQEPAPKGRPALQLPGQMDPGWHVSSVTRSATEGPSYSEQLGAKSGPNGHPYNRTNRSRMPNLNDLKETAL
Outline: as §1

LIMK2 = LIMK2 (Homo sapiens, UniProt P53671); conditions: LIMK2, 1 μM; read-out: % control
Sequence of LIMK2 (P53671 whole entry): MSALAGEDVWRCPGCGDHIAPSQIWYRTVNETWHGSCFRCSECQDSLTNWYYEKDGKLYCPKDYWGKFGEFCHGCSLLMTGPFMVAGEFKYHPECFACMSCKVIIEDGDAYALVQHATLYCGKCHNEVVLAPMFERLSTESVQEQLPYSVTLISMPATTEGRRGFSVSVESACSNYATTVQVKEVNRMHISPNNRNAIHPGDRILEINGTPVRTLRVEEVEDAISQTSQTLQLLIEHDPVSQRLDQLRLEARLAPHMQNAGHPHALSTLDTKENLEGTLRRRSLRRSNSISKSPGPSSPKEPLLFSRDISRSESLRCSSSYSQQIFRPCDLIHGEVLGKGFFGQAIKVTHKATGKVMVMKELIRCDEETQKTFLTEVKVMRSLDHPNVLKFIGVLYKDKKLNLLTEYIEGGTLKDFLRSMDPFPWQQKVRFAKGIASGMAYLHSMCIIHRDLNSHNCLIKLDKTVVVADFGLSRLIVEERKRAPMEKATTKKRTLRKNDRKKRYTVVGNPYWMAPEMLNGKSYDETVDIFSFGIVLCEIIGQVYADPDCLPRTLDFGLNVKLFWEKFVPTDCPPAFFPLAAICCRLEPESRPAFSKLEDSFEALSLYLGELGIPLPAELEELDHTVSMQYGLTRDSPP
Outline: as §1

CASK = biological target: T3, CASK (Homo sapiens, UniProt O14936); conditions: read-out: % control
T3 sequence (O14936 1-926): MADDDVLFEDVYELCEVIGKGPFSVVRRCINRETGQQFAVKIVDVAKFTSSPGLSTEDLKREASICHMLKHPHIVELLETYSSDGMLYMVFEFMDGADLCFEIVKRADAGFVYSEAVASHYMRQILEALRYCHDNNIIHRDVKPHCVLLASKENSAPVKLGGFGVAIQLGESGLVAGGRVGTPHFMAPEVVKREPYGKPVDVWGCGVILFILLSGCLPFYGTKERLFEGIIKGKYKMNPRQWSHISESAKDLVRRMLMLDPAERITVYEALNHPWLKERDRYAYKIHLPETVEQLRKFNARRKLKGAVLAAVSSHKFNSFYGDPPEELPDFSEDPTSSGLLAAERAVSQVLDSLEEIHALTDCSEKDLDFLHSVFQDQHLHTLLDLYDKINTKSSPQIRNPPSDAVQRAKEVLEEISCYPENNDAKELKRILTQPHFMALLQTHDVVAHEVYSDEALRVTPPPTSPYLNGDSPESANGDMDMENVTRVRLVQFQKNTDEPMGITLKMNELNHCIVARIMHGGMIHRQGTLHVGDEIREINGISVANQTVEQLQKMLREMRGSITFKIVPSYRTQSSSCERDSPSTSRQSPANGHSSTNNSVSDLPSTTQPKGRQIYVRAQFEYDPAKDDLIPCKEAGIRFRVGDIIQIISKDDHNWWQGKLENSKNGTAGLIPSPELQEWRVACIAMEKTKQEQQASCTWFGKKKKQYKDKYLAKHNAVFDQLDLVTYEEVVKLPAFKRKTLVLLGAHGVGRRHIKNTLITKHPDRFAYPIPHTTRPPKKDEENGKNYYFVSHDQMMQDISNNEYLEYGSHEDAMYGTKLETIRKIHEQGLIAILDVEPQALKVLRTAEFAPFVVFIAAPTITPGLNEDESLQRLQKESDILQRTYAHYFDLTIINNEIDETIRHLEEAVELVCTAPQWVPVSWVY
Outline: as §1

[1] = biological target: T4, RPS6KA5(Kin.Dom.1-N-terminal) (Homo sapiens, UniProt O75582); conditions: read-out: % control
T4 construct: RPS6KA5(Kin.Dom.1-N-terminal)
T4 sequence (O75582 49-318 limits assumed): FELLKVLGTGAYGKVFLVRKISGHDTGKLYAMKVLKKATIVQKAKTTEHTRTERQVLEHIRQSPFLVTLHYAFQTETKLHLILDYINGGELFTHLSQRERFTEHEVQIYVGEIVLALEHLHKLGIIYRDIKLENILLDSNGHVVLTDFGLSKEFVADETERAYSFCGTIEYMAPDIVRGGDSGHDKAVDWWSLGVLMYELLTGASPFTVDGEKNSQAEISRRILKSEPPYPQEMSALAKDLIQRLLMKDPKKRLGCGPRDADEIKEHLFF
Outline: as §1

Q: For CNc1c(-c2cnn([C@H]3CCN(C(C)=O)C[C@@H]3F)c2)cnc2[nH]cc(Cl)c12 [Compound 77, 1-((3S,4S)-4-(4-(3-chloro-4-(methylamino)-1H-pyrrolo[2,3-b]pyridin-5-yl)-1H-pyrazol-1-yl)-3-fluoropiperidin-1-yl)ethan-1-one], which remaining binding at 1 µM (PRKX) is on record?
A: 100%

Q: What about the remaining binding at 1 µM (CDK8) of the same compound?
A: 100%

Q: And the remaining binding at 1 µM (PAK6)?
A: 99%

Q: And the remaining binding at 1 µM (CDKL5)?
A: 94%

Q: What about the remaining binding at 1 µM (LIMK2) of the same compound?
A: 97%

Q: And the remaining binding at 1 µM (CASK)?
A: 95%

Q: And the remaining binding at 1 µM [1]?
A: 100%

Q: Which remaining binding at 1 µM (PRKX) does the source give for O=C(c1ccc(-c2cnc3[nH]cc(Cl)c3c2NC2CCCC2)cc1)N1CCC(N2CCOCC2)CC1 [Compound 101, (4-(3-chloro-4-(cyclopentylamino)-1H-pyrrolo[2,3-b]pyridin-5-yl)phenyl)(4-morpholinopiperidin-1-yl)methanone] here?
A: 82%

Q: And the remaining binding at 1 µM (CDK8)?
A: 59%

Q: What about the remaining binding at 1 µM (PAK6) of the same compound?
A: 99%

Q: What about the remaining binding at 1 µM (CDKL5) of the same compound?
A: 70%

Q: What about the remaining binding at 1 µM (LIMK2) of the same compound?
A: 99%

Q: What about the remaining binding at 1 µM (CASK) of the same compound?
A: 100%

Q: What about the remaining binding at 1 µM [1] of the same compound?
A: 90%

Q: What does the source list for CNc1c(-c2ccc(C(=O)N3CCC(N4CCOCC4)CC3)cc2)cnc2[nH]cc(Cl)c12 [Compound 96, (4-(3-chloro-4-(methylamino)-1H-pyrrolo[2,3-b]pyridin-5-yl)phenyl)(4-morpholinopiperidin-1-yl)methanone]?
A: remaining binding at 1 µM (PRKX): 100%; remaining binding at 1 µM (CDK8): 82%; remaining binding at 1 µM (PAK6): 100%; remaining binding at 1 µM (CDKL5): 92%; remaining binding at 1 µM (LIMK2): 100%; remaining binding at 1 µM (CASK): 94%; remaining binding at 1 µM [1]: 100%
